Patent US4499083A, “3-O-Demethyl derivatives of the istamycin B series of compounds” (Zaidan Hojin Biseibutsu Kagaku Kenkyu Kai, priority 1980, dated 1985)
Values after ≈ are worked out from the molar mass of the structure shown. Where two headings read alike, the source gives them in different places.

Legend:
Type in all cases: cell-based
[1] = system: Staphylococcus aureus FDA 209P; experiment: Antibacterial spectrum, MIC by serial dilution on nutrient agar; conditions: FDA209P, 37° C., 17 hours, read-out: Minimum inhibitory concentration
[2] = system: Staphylococcus aureus Ap01; experiment: as above; conditions: 37° C., 17 hours, read-out: Minimum inhibitory concentration
Bacillus anthracis = experiment: microbe, parasite or virus in culture; conditions: 17 h, read-out: Minimum inhibitory concentration
[3] = system: Bacillus subtilis PCI 219; experiment: Antibacterial spectrum, MIC by serial dilution on nutrient agar; conditions: read-out: Minimum inhibitory concentration
[4] = system: Bacillus cereus ATCC 10702; experiment: as above; conditions: read-out: Minimum inhibitory concentration
[5] = system: Corynebacterium bovis 1810; experiment: as above; conditions: read-out: Minimum inhibitory concentration
[6] = system: Mycobacterium smegmatis ATCC 607; experiment: as above; conditions: Mycolicibacterium smegmatis, read-out: Minimum inhibitory concentration
Escherichia coli NIHJ = experiment: as above; conditions: read-out: Minimum inhibitory concentration
Escherichia coli K-12 R5 = experiment: as above; conditions: K12R5, 17 h, read-out: Minimum inhibitory concentration
[7] = system: Escherichia coli K-12 R388; experiment: as above; conditions: K12R388, 17 h, read-out: Minimum inhibitory concentration
[8] = system: Escherichia coli K-12 J5R11-2; experiment: as above; conditions: read-out: Minimum inhibitory concentration
[9] = system: Escherichia coli K-12 C600 R135; experiment: as above; conditions: K12C600R135, 37° C., 17 hours, read-out: Minimum inhibitory concentration
Protocol: (§1) The antibacterial spectra of 3-O-demethylistamycin B.sesquicarbonate and 3-O-demethyl-2"-N-formimidoylistamycin B.disulphate.trihydrate are shown in Table 2, along with that of istamycin B for comparison purposes.
(§2) Minimum inhibitory concentrations (mcg/ml)*^1
(§3) *^1 Determined according to a standard serial dilution method on
(§4) nutrient agar plates which were incubated at 37° C. for 17 hours.

[10] = system: Escherichia coli K-12 ML1629; experiment: as above; conditions: K12ML1629, 37° C., 17 hours, read-out: Minimum inhibitory concentration
Protocol: as §1, §2, §3, §4

[11] = system: Escherichia coli K-12 ML1630; experiment: as above; conditions: K12ML1630, 37° C., 17 hours, read-out: Minimum inhibitory concentration
Protocol: as §1, §2, §3, §4

[12] = system: Klebsiella pneumoniae 22#3038; experiment: as above; conditions: 37° C., 17 hours, read-out: Minimum inhibitory concentration
Protocol: as §1, §2, §3, §4

[13] = system: Shigella flexneri 4B JS11811; experiment: as above; conditions: 4BJS11811, 37° C., 17 hours, read-out: Minimum inhibitory concentration
Protocol: as §1, §2, §3, §4

Shigella sonnei JS11746 = experiment: as above; conditions: 37° C., 17 hours, read-out: Minimum inhibitory concentration
Protocol: as §1, §2, §3, §4

[14] = system: Escherichia coli K-12 ML1410; experiment: as above; conditions: read-out: Minimum inhibitory concentration
[15] = system: Escherichia coli K-12 ML1410 R81; experiment: as above; conditions: K12ML1410R81, 17 h, read-out: Minimum inhibitory concentration
[16] = system: Escherichia coli K-12 LA290 R64; experiment: as above; conditions: K12LA290R64, 17 h, read-out: Minimum inhibitory concentration
Escherichia coli W677 = experiment: as above; conditions: read-out: Minimum inhibitory concentration
[17] = system: Escherichia coli JR66/W677; experiment: as above; conditions: JR66/W677, 17 h, read-out: Minimum inhibitory concentration
Escherichia coli JR255 = experiment: as above; conditions: read-out: Minimum inhibitory concentration
[18] = system: Klebsiella pneumoniae PCI602; experiment: as above; conditions: 37° C., 17 hours, read-out: Minimum inhibitory concentration
[19] = system: Salmonella enteritidis 1891; experiment: as above; conditions: Salmonella enterica, 37° C., 17 hours, read-out: Minimum inhibitory concentration
Proteus rettgeri GN466 = experiment: as above; conditions: Providencia rettgeri, read-out: Minimum inhibitory concentration
Providencia sp. Pv16 = experiment: as above; conditions: 37° C., 17 hours, read-out: Minimum inhibitory concentration
Providencia sp. 2991 = experiment: as above; conditions: 37° C., 17 hours, read-out: Minimum inhibitory concentration
[20] = system: Pseudomonas aeruginosa A3; experiment: as above; conditions: 37° C., 17 hours, read-out: Minimum inhibitory concentration
[21] = system: Pseudomonas aeruginosa TI-13; experiment: as above; conditions: TI13, 37° C., 17 hours, read-out: Minimum inhibitory concentration
[22] = system: Pseudomonas aeruginosa GN315; experiment: as above; conditions: 37° C., 17 hours, read-out: Minimum inhibitory concentration
[23] = system: Pseudomonas aeruginosa B-13; experiment: as above; conditions: B13, 37° C., 17 hours, read-out: Minimum inhibitory concentration
[24] = system: Pseudomonas aeruginosa 21-75; experiment: as above; conditions: 2175, 37° C., 17 hours, read-out: Minimum inhibitory concentration
[25] = system: Pseudomonas aeruginosa ROS 134/PU21; experiment: as above; conditions: ROS134/PU21, 17 h, read-out: Minimum inhibitory concentration
[26] = system: Pseudomonas aeruginosa K-Ps 102; experiment: as above; conditions: read-out: Minimum inhibitory concentration
[27] = PCI219, Bacillus subtilis PCI 219, nutrient agar, 37° C., 17 hours
[28] = ATCC10702, Bacillus cereus ATCC 10702, nutrient agar, 37° C., 17 hours
[29] = Corynebacterium bovis 1810, nutrient agar, 37° C., 17 hours
[30] = ATCC607, Mycobacterium smegmatis ATCC 607, nutrient agar, 37° C., 17 hours
[31] = Escherichia coli NIHJ, nutrient agar, 37° C., 17 hours
[32] = K12J5R112, Escherichia coli K-12 J5R11-2, nutrient agar, 37° C., 17 hours
[33] = Escherichia coli, K12ML1410, 17 h
[34] = Escherichia coli W677, nutrient agar, 37° C., 17 hours
[35] = Escherichia coli JR255, nutrient agar, 37° C., 17 hours
[36] = KPS102, Pseudomonas aeruginosa K-Ps 102, nutrient agar, 37° C., 17 hours

Compound | MIC [1] [µg/mL] | MIC [2] [µg/mL] | MIC (Bacillus anthracis) [µg/mL] | MIC (Escherichia coli K-12 R5) [µg/mL] | MIC [7] [µg/mL] | MIC [9] [µg/mL] | MIC [10] [µg/mL] | MIC [11] [µg/mL] | MIC [12] [µg/mL] | MIC [13] [µg/mL] | MIC (Shigella sonnei JS11746) [µg/mL] | MIC [15] [µg/mL] | MIC [16] [µg/mL] | MIC [17] [µg/mL] | MIC [18] [µg/mL] | MIC [19] [µg/mL] | MIC (Providencia sp. Pv16) [µg/mL] | MIC (Providencia sp. 2991) [µg/mL] | MIC [20] [µg/mL] | MIC [21] [µg/mL] | further results
CNCC1CCC(N)C(OC2C(N)CC(O)C(N(C)C(=O)CNC=N)C2O)O1 (stereo not drawn) [3-O-Demethyl-2"-N-formimidoylistamycin B] | 0.2 (≈ 0.497 µM) | 0.78 (≈ 1.94 µM) | < 0.2 | 3.13 (≈ 7.78 µM) | 1.56 (≈ 3.88 µM) | 12.5 (≈ 31.1 µM) | 1.56 (≈ 3.88 µM) | 1.56 (≈ 3.88 µM) | 3.13 (≈ 7.78 µM) | 3.13 (≈ 7.78 µM) | 3.13 (≈ 7.78 µM) | 1.56 (≈ 3.88 µM) | 1.56 (≈ 3.88 µM) | 3.13 (≈ 7.78 µM) | 1.56 (≈ 3.88 µM) | 1.56 (≈ 3.88 µM) | 25 (≈ 62.1 µM) | 12.5 (≈ 31.1 µM) | 1.56 (≈ 3.88 µM) | 6.25 (≈ 15.5 µM) | MIC [3, 27]: < 0.2 µg/mL; MIC [4, 28]: 1.56 µg/mL (≈ 3.88 µM); MIC [5, 29]: 0.78 µg/mL (≈ 1.94 µM); MIC [6, 30]: < 0.2 µg/mL; MIC (Escherichia coli NIHJ; [31]): 1.56 µg/mL (≈ 3.88 µM); MIC [8, 32]: 1.56 µg/mL (≈ 3.88 µM); MIC [14, 33]: 3.13 µg/mL (≈ 7.78 µM); MIC (Escherichia coli W677; [34]): 0.78 µg/mL (≈ 1.94 µM); MIC (Escherichia coli JR255; [35]): 0.78 µg/mL (≈ 1.94 µM); MIC (Proteus rettgeri GN466; GN466, 17 h): 3.13 µg/mL (≈ 7.78 µM); MIC [22]: 6.25 µg/mL (≈ 15.5 µM); MIC [23]: > 100 µg/mL; MIC [24]: 25 µg/mL (≈ 62.1 µM); MIC [25]: 50 µg/mL (≈ 124 µM); MIC [26, 36]: 12.5 µg/mL (≈ 31.1 µM)
CNCC1CCC(N)C(OC2C(N)CC(O)C(N(C)C(=O)CN)C2O)O1 (stereo not drawn) [3-O-Demethylistamycin B] | 0.39 (≈ 1.04 µM) | 0.78 (≈ 2.08 µM) | < 0.2 | 6.25 (≈ 16.6 µM) | 1.56 (≈ 4.15 µM) | 6.25 (≈ 16.6 µM) | 3.13 (≈ 8.34 µM) | 3.13 (≈ 8.34 µM) | 6.25 (≈ 16.6 µM) | 6.25 (≈ 16.6 µM) | 6.25 (≈ 16.6 µM) | 3.13 (≈ 8.34 µM) | 3.13 (≈ 8.34 µM) | 6.25 (≈ 16.6 µM) | 3.13 (≈ 8.34 µM) | 3.13 (≈ 8.34 µM) | 25 (≈ 66.6 µM) | 12.5 (≈ 33.3 µM) | 3.13 (≈ 8.34 µM) | 12.5 (≈ 33.3 µM) | MIC ([3]; Bacillus subtilis, PCI219, 17 h): < 0.2 µg/mL; MIC ([4]; Bacillus cereus, ATCC10702, 17 h): 1.56 µg/mL (≈ 4.15 µM); MIC ([5]; Corynebacterium bovis, 1810, 17 h): 1.56 µg/mL (≈ 4.15 µM); MIC ([6]; ATCC607, 17 h): < 0.2 µg/mL; MIC (Escherichia coli NIHJ; Escherichia coli, 17 h): 1.56 µg/mL (≈ 4.15 µM); MIC ([8]; Escherichia coli, K12J5R112, 17 h): 1.56 µg/mL (≈ 4.15 µM); MIC ([14]; K12ML1410, Escherichia coli K-12 ML1410, nutrient agar, 37° C., 17 hours): 3.13 µg/mL (≈ 8.34 µM); MIC (Escherichia coli W677; Escherichia coli, W677, 17 h): 1.56 µg/mL (≈ 4.15 µM); MIC (Escherichia coli JR255; Escherichia coli, JR255, 17 h): 1.56 µg/mL (≈ 4.15 µM); MIC (Proteus rettgeri GN466; GN466, 17 h): 6.25 µg/mL (≈ 16.6 µM); MIC [22]: 12.5 µg/mL (≈ 33.3 µM); MIC [23]: 50 µg/mL (≈ 133 µM); MIC [24]: 50 µg/mL (≈ 133 µM); MIC [25]: 50 µg/mL (≈ 133 µM); MIC ([26]; Pseudomonas aeruginosa, KPS102, 17 h): 6.25 µg/mL (≈ 16.6 µM)
CNCC1CCC(N)C(OC2C(N)CC(OC)C(N(C)C(=O)CN)C2O)O1 (stereo not drawn) [Istamycin B, istamycin B] | 0.39 (≈ 1 µM) | 0.78 (≈ 2 µM) | < 0.2 | 3.13 (≈ 8.04 µM) | 1.56 (≈ 4.01 µM) | 12.5 (≈ 32.1 µM) | 1.56 (≈ 4.01 µM) | 1.56 (≈ 4.01 µM) | 3.13 (≈ 8.04 µM) | 3.13 (≈ 8.04 µM) | 3.13 (≈ 8.04 µM) | 1.56 (≈ 4.01 µM) | 1.56 (≈ 4.01 µM) | 3.13 (≈ 8.04 µM) | 1.56 (≈ 4.01 µM) | 1.56 (≈ 4.01 µM) | 6.25 (≈ 16 µM) | 6.25 (≈ 16 µM) | 6.25 (≈ 16 µM) | 25 (≈ 64.2 µM) | MIC [3, 27]: < 0.2 µg/mL; MIC [4, 28]: 1.56 µg/mL (≈ 4.01 µM); MIC [5, 29]: 0.78 µg/mL (≈ 2 µM); MIC [6, 30]: 0.78 µg/mL (≈ 2 µM); MIC (Escherichia coli NIHJ; [31]): 1.56 µg/mL (≈ 4.01 µM); MIC [8, 32]: 1.56 µg/mL (≈ 4.01 µM); MIC [14, 33]: 3.13 µg/mL (≈ 8.04 µM); MIC (Escherichia coli W677; [34]): 1.56 µg/mL (≈ 4.01 µM); MIC (Escherichia coli JR255; [35]): 0.78 µg/mL (≈ 2 µM); MIC (Proteus rettgeri GN466; Proteus rettgeri GN466, nutrient agar, 37° C., 17 hours): 6.25 µg/mL (≈ 16 µM); MIC [22]: 50 µg/mL (≈ 128 µM); MIC [23]: > 100 µg/mL; MIC [24]: 100 µg/mL (≈ 257 µM); MIC [25]: > 100 µg/mL; MIC [26, 36]: 50 µg/mL (≈ 128 µM)
